Measured values as given in patent US12240844B2 (Voronoi, Inc., priority 2019, dated 2025).

Experiments:
[1] = biological target: T1, LRRK2, LRRK2 (G2019S), DYRK1, CLK1 and TTK kinases (Homo sapiens, UniProt P49759); assay: Enzyme IC50 by Kinase HotSpot service (Reaction Biology Corporation), values marked with *; assay type: biochemical; details: CLK1, ATP 10 uM
T1 construct: CLK1 IC50 (marked with *); other: CLK1; Kinase HotSpot service (Reaction Biology), ATP 10 uM
Procedure, shortened: (§1)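 Radiometric-service kinase assays (Reaction Biology HotSpot protocol) run at 10 uM ATP under uniform conditions. Compounds tested as 3-fold dilution series from a top concentration of […] to give IC50.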

[2] = biological target: T2, LRRK2, LRRK2 (G2019S), DYRK1, CLK1 and TTK kinases (Homo sapiens, UniProt Q5S007); assay: as above; assay type: biochemical; details: LRRK2, ATP 10 uM
T2 construct: LRRK2 IC50 (marked with *); other: LRRK2; Kinase HotSpot service (Reaction Biology), ATP 10 uM
Procedure, shortened: as §1

T1 sequence (P49759 whole entry, stated change not applied): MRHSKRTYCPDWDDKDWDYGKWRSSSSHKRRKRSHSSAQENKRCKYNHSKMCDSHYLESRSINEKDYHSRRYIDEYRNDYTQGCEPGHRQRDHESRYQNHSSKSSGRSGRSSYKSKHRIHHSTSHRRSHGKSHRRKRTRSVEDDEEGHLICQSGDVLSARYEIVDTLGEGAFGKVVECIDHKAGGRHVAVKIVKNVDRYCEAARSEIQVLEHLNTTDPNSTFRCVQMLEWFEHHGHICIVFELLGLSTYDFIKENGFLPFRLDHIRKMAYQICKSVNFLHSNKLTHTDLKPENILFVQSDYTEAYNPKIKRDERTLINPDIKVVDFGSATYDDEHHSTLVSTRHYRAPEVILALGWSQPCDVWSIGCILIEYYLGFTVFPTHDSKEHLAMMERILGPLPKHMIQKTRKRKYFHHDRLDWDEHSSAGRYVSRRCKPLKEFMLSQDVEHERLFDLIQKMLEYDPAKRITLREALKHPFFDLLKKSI
T2 sequence (Q5S007 whole entry G2019S): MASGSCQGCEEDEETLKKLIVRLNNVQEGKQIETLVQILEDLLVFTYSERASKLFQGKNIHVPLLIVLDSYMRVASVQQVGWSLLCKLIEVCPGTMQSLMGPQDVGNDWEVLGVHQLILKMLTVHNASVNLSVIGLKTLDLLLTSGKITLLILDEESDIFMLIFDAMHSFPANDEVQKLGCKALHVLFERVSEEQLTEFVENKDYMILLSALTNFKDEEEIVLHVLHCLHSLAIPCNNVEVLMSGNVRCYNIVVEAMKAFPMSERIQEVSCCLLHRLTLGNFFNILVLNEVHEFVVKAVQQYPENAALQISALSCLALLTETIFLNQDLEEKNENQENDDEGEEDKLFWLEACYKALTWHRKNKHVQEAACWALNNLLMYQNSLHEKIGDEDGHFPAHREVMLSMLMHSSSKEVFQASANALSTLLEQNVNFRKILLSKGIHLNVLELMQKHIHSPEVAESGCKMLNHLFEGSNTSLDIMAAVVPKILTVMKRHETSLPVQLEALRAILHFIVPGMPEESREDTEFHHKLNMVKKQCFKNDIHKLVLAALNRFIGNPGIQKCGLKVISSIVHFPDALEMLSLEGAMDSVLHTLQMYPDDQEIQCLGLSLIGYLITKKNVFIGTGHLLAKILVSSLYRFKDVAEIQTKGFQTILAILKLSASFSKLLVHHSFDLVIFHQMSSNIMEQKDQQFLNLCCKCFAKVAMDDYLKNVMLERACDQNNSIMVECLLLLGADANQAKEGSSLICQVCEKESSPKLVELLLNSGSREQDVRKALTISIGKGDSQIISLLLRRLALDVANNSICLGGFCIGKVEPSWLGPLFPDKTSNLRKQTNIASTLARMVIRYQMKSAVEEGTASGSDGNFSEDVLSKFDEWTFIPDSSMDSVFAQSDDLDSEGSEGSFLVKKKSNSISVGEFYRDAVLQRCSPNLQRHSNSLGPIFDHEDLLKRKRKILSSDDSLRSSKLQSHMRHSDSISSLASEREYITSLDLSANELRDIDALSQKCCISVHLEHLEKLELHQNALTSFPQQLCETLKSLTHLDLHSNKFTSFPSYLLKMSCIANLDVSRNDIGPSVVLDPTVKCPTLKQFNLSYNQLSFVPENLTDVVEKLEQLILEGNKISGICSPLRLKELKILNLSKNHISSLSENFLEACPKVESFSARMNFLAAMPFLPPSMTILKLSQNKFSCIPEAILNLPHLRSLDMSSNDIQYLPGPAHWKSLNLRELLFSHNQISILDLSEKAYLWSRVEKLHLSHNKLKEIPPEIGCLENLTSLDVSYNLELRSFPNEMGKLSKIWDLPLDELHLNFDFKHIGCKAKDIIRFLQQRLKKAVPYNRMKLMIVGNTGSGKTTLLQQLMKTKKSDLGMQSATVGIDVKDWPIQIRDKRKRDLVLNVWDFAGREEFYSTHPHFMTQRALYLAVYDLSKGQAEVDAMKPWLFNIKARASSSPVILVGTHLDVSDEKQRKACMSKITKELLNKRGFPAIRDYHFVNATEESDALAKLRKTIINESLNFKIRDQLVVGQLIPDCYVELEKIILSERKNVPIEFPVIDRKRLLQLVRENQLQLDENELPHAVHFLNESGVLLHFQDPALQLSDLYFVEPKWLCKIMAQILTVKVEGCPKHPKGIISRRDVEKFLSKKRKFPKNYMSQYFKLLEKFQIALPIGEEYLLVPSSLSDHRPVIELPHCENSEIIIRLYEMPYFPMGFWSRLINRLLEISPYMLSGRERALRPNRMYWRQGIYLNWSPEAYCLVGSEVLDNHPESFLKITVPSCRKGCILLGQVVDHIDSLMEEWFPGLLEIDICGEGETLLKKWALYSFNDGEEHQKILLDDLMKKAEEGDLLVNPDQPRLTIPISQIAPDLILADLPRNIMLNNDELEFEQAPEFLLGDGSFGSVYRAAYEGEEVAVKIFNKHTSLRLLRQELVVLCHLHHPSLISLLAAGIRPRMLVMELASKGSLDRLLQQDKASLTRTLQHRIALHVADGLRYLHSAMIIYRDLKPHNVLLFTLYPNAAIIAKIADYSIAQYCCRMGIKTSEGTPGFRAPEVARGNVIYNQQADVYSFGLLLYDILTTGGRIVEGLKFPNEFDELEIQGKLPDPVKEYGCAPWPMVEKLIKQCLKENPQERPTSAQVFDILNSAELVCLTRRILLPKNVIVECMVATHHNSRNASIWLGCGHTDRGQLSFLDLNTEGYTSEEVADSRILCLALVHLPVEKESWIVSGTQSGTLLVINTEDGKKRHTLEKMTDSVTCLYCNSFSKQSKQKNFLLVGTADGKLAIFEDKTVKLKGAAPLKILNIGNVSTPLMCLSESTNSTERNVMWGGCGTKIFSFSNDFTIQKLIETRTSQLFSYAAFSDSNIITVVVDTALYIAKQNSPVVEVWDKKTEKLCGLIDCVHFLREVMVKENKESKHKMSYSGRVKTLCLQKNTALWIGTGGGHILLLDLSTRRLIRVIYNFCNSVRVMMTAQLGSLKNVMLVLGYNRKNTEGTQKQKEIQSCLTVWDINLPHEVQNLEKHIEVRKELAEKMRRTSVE

IC50 [1] [nM]	IC50 [2] [nM]	Compound
< 100	101 to 300	O=C(c1ccc(Nc2cc(C3CC3)c3c(C(F)(F)F)c[nH]c3n2)c2c1CCO2)N1CC[C@@H](N2CCOCC2)C1 [Example 238, (R)-(7-((4-cyclopropyl-3-(trifluoromethyl)-1H-pyrrolo[2,3-b]pyridin-6-yl)amino)-2,3-dihydrobenzofuran-4-yl)(3-morpholinopyrrolidin-1-yl)methanone]
< 100		O=C(c1ccc(Nc2cc(C3CC3)c3c(C(F)(F)F)c[nH]c3n2)c2c1CCO2)N1CCOCC1 [Example 91, (7-((4-cyclopropyl-3-(trifluoromethyl)-1H-pyrrolo[2,3-b]pyridin-6-yl)amino)-2,3-dihydrobenzofuran-4-yl)(morpholino) methanone]
< 100	< 100	CNc1cc(Nc2ccc(S(=O)(=O)N3CCC(N4CCOCC4)CC3)cc2OC)nc2[nH]cc(C(F)(F)F)c12 [Example 184, N^6-(2-methoxy-4-((4-morpholinopiperidin-1-yl)sulfonyl)phenyl)-N^4-methyl-3-(trifluoromethyl)-1H-pyrrolo[2,3-b]pyridine-4,6-diamine]
< 100	101 to 300	O=C(c1ccc(Nc2cc(C3CC3)c3c(C(F)(F)F)c[nH]c3n2)c2c1CCO2)N1CC[C@H](N2CCOCC2)C1 [Example 237, (S)-(7-((4-cyclopropyl-3-(trifluoromethyl)-1H-pyrrolo[2,3-b]pyridin-6-yl)amino)-2,3-dihydrobenzofuran-4-yl)(3-morpholinopyrrolidin-1-yl)methanone]
